Target: T1, PI3Kδ (Homo sapiens, UniProt O00329)
T1 construct: purchased Invitrogen (US)
Assay: In vitro enzyme activity (ADP-Glo) against PI3Kδ
Format: biochemical
Conditions: Table 2; ATP 50 μM, PIP2:PS 50 μM
Experimental: In vitro enzyme activity experiments were performed to determine the IC50 values of the compounds against PI3K family type I kinases (PI3Kα, PI3Kβ, PI3Kγ, PI3Kδ) and type II kinases (PIK3C2A, PIK3C2B). Protein kinases PI3Kα, PI3Kγ, PI3Kδ, PIK3C2A, and PIK3C2B were all purchased from Invitrogen (US); protein kinase PI3Kβ was purchased from sigma (US); the three substrates PIP2: PS, PI and PI: PS were purchased from Invitrogen (US).
Protein kinases diluted to a certain concentration, i.e., PI3Kα 5.4 μL (with a final concentration of 0.16 ng/μL), PI3Kβ 5.4 μL (with a final concentration of 6 ng/μL), PI3Kδ 5.4 μL (with a final concentration of 1 ng/μL), PI3Kγ 5.4 μL (with a final concentration of 5 ng/μL), PIK3C2A 5.4 μL (with a final concentration of 5 ng/μL), and PIK3C2B 5.4 μL (with a final concentration of 10 ng/μL) were respectively reacted with 1 μL of the serially diluted drug compounds for 1 hour at room temperature (final drug concentrations were 10 μM, 1 μM, 0.3 μM, 0.1 μM, 0.03 μM, 0.01 μM, 0.003 μM, and 0.001 μM, respectively).
To each reaction tube of the above PI3K family type I kinases, 6 μL of a mixture of ATP (Promega, US) and substrate PIP2:PS (final concentrations of ATP in the reaction systems of kinases PI3Kα, and PI3Kβ were 10 μM, and final concentrations of ATP in the reaction systems of kinases PI3Kδ, and PI3Kγ were 50 μM, and final concentrations of the substrate PIP2:PS were all 50 μM) was added, and reacted at 37° C. for 1 hour. The reaction buffer was 50 mM Hepes (pH 7.5) (Promega, USA), 3 mM MgCl2, 1 mM EGTA (Promega, US), 100 mM NaCl, 0.03% CHAPS (Promega, US).
5 μL of kinase solution after reaction was placed in a 384-well plate (Corning, US), and 5 μL of ADP-Glo™ reagent (Promega, US) was added thereto and reacted at room temperature for 40 minutes to stop the kinase reaction and exhaust the remaining ATP; 10 μL of kinase detection reagent was added to convert ADP into ATP, and coupled luciferase/luciferin reaction was utilized to detect the newly synthesized ATP. Envision was utilized for readout and plotting, and Graphpad IC50 value was calculated.

T1 sequence (O00329 whole entry): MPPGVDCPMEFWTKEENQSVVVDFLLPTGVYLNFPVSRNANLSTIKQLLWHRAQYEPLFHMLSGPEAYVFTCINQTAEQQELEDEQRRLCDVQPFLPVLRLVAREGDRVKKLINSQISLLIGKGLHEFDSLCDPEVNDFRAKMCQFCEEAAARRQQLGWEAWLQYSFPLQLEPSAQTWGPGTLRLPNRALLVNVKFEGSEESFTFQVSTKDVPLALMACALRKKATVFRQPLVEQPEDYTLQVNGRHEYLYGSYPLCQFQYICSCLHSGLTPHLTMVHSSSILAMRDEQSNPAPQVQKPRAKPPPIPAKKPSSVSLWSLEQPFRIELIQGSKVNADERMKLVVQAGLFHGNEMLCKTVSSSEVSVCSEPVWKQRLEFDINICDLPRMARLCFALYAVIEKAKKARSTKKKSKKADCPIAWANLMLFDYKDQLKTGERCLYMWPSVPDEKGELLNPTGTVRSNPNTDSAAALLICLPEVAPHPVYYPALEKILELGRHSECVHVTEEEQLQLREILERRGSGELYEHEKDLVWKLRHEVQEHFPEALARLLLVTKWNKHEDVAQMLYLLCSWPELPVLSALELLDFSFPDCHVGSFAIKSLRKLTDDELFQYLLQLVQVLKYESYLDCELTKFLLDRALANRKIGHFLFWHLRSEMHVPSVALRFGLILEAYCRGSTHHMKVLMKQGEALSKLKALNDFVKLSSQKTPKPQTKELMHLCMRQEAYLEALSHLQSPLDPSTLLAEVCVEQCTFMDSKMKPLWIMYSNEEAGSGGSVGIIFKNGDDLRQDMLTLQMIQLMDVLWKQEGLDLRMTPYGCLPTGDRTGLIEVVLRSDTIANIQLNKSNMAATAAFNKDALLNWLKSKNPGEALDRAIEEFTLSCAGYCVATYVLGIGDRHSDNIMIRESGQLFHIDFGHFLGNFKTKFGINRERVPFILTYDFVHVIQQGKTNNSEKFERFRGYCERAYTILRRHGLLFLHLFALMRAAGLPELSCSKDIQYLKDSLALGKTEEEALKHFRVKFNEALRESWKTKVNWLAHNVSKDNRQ
T1 sequence (P27986 whole entry partner): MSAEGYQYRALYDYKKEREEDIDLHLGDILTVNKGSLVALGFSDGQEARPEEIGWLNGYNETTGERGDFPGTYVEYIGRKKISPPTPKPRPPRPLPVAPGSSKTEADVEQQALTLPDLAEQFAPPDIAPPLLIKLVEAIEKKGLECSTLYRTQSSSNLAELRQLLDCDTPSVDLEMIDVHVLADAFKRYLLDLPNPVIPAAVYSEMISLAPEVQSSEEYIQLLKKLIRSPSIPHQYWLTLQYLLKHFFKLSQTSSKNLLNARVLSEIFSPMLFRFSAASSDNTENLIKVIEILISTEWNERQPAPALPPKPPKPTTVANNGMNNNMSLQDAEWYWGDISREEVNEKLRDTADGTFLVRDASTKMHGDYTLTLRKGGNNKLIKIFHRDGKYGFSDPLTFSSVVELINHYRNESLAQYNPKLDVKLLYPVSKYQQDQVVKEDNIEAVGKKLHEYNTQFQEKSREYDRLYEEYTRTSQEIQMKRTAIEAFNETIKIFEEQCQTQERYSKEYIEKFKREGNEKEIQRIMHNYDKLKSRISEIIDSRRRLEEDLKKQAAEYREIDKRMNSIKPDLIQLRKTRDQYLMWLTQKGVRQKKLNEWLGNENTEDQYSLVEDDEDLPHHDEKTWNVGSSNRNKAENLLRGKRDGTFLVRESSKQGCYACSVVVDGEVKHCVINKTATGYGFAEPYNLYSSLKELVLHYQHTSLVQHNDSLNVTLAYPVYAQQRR

| IC50 [µM] | SMILES |
| --- | --- |
| 0.0999 | COc1ccc(-c2nn(Cc3nc4cccc(F)c4c(=O)n3C3CCC3)c3ncnc(N)c23)cc1F [Compound 7, 2-((4-amino-3-(3-fluoro-4-methoxyphenyl)-1H-pyrazolo [3,4-d]pyrimidin-1-yl)methyl)-3-cyclobutyl-5-fluoroquinazolin-4(3H)-one] |
| 0.082 | CC(c1nc2cccc(F)c2c(=O)n1C1CCCC1)n1nc(-c2cccc(F)c2)c2c(N)ncnc21 (stereo not shown) [Compound 12, 2-(1-(4-amino-3-(3-fluorophenyl)-1H-pyrazolo [3,4-d]pyrimidin-1-yl)ethyl)-3-cyclopentyl-5-fluoroquinazolin-4(3H)-one] |
| 0.0215 | CC(C)c1ccc(-c2nn(C(C)c3nc4cccc(F)c4c(=O)n3C3CCCC3)c3ncnc(N)c23)cc1 (stereo not shown) [Compound 24, 2-(1-(4-amino-3-(4-isopropylphenyl)-1H-pyrazolo [3,4-d]pyrimidin-1-yl)ethyl)-3-cyclopentyl-5-fluoroquinazolin-4(3H)-one] |
| 0.0175 | Cc1ccc(-c2nn(C(C)c3nc4cccc(F)c4c(=O)n3C3CCCC3)c3ncnc(N)c23)cc1F (stereo not shown) [Compound 25, 2-(1-(4-amino-3-(3-fluoro-4-methylphenyl)-1H-pyrazolo [3,4-d]pyrimidin-1-yl)ethyl)-3-cyclopentyl-5-fluoroquinazolin-4(3H)-one] |
| 0.0557 | CC(c1nc2cccc(F)c2c(=O)n1C1CCCC1)n1nc(-c2cnc3ccccc3c2)c2c(N)ncnc21 (stereo not shown) [Compound 26, 2-(1-(4-amino-3-(quinolin-3-yl)-1H-pyrazolo [3,4-d]pyrimidin-1-yl)ethyl)-3-cyclopentyl-5-fluoroquinazolin-4(3H)-one] |
| 0.0833 | CC(C)c1ccc(-c2nn(C(C)c3nc4cccc(F)c4c(=O)n3C3CCC3)c3ncnc(N)c23)cc1 (stereo not shown) [Compound 28, 2-(1-(4-amino-3-(4-isopropylphenyl)-1H-pyrazolo [3,4-d]pyrimidin-1-yl)ethyl)-3-cyclobutyl-5-fluoroquinazolin-4(3H)-one] |
| 0.0773 | COc1ccc(-c2nn(C(C)c3nc4c(Cl)cccc4c(=O)n3C3CCC3)c3ncnc(N)c23)cc1F (stereo not shown) [Compound 29, 2-(1-(4-amino-3-(3-fluoro-4-methoxyphenyl)-1H-pyrazolo [3,4-d]pyrimidin-1-yl)ethyl)-8-chloro-3-cyclobutylquinazolin-4(3H)-one] |
| 0.0418 | COc1ccc(-c2nn(C(C)c3nc4cccc(F)c4c(=O)n3C3CCC3)c3ncnc(N)c23)cc1C (stereo not shown) [Compound 34, 2-(1-(4-amino-3-(4-methoxy-3-methylphenyl)-1H-pyrazolo [3,4-d]pyrimidin-1-yl)ethyl)-3-cyclobutyl-5-fluoroquinazolin-4(3H)-one] |
| 0.0262 | CC(c1nc2cccc(F)c2c(=O)n1C1CCC1)n1nc(-c2ccc3c(c2)OCO3)c2c(N)ncnc21 (stereo not shown) [Compound 35, 2-(1-(4-amino-3-(benzo[d][1,3]dioxol-5-yl)-1H-pyrazolo [3,4-d]pyrimidin-1-yl)ethyl)-3-cyclobutyl-5-fluoroquinazolin-4(3H)-one] |
| 0.0162 | COc1ccc(-c2nn(C(C)c3nc4cccc(F)c4c(=O)n3C3CCCC3)c3ncnc(N)c23)cc1C (stereo not shown) [Compound 36, 2-(1-(4-amino-3-(4-methoxy-3-methylphenyl)-1H-pyrazolo [3,4-d]pyrimidin-1-yl)ethyl)-3-cyclopentyl-5-fluoroquinazolin-4(3H)-one] |
| 0.0235 | COc1ccc(-c2nn(C(C)c3nc4ccccc4c(=O)n3C3CCC3)c3ncnc(N)c23)cc1C (stereo not shown) [Compound 39, 2-(1-(4-amino-3-(4-methoxy-3-methylphenyl)-1H-pyrazolo [3,4-d]pyrimidin-1-yl)ethyl)-3-cyclobutylquinazolin-4(3H)-one] |
| 0.0289 | CCC(c1nc2cccc(F)c2c(=O)n1C1CC1)n1nc(-c2ccc(OC)cc2)c2c(N)ncnc21 (stereo not shown) [Compound 40, 2-(1-(4-amino-3-(4-methoxyphenyl)-1H-pyrazolo [3,4-d]pyrimidin-1-yl)propyl)-3-cyclopropyl-5-fluoroquinazolin-4(3H)-one] |
| 0.0273 | Cc1ccc(-c2nn(C(C)c3nc4ccc(F)cc4c(=O)n3C3CC3)c3ncnc(N)c23)cc1F (stereo not shown) [Compound 43, 2-(1-(4-amino-3-(3-fluoro-4-methylphenyl)-1H-pyrazolo [3,4-d]pyrimidin-1-yl)ethyl)-3-cyclopropyl-6-fluoroquinazolin-4-(3H)-one] |
| 0.0398 | COc1ccc(-c2nn(C(C)c3nc4ccccc4c(=O)n3C3CC3)c3ncnc(N)c23)cc1C (stereo not shown) [Compound 44, 2-(1-(4-amino-3-(4-methoxy-3-methylphenyl)-1H-pyrazolo [3,4-d]pyrimidin-1-yl)ethyl)-3-cyclopropylquinazolin-4(3H)-one] |
| 0.0272 | COc1ccc(-c2nn(C(C)c3nc4ccccc4c(=O)n3C3CC3)c3ncnc(N)c23)cc1 (stereo not shown) [Compound 45, 2-(1-(4-amino-3-(4-methoxyphenyl)-1H-pyrazolo [3,4-d]pyrimidin-1-yl)ethyl)-3-cyclopropylquinazolin-4(3H)-one] |
| 0.0347 | CC(c1nc2cccc(F)c2c(=O)n1C1CCCC1)n1nc(-c2ccc3c(c2)OCO3)c2c(N)ncnc21 (stereo not shown) [Compound 46, 2-(1-(4-amino-3-(benzo[d][1,3]dioxol-5-yl)-1H-pyrazolo [3,4-d]pyrimidin-1-yl)ethyl)-3-cyclopentyl-5-fluoroquinazolin-4(3H)-one] |
| 0.0321 | CCC(c1nc2cccc(F)c2c(=O)n1C1CC1)n1nc(-c2ccc(OC)c(OC)c2)c2c(N)ncnc21 (stereo not shown) [Compound 47, 2-(1-(4-amino-3-(3,4-dimethoxyphenyl)-1H-pyrazolo [3,4-d]pyrimidin-1-yl)propyl)-3-cyclopropyl-5-fluoroquinazolin-4(3H)-one] |
| 0.0485 | CCC(c1nc2cccc(F)c2c(=O)n1C1CC1)n1nc(-c2ccc(OC)nc2)c2c(N)ncnc21 (stereo not shown) [Compound 50, 2-(1-(4-amino-3-(6-methoxypyridin-3-yl)-1H-pyrazolo [3,4-d]pyrimidin-1-yl)propyl)-3-cyclopropyl-5-fluoroquinazolin-4(3H)-one] |
| 0.0438 | CC(=O)Nc1ccc(-c2nn(C(C)c3nc4cccc(F)c4c(=O)n3C3CCC3)c3ncnc(N)c23)cc1 (stereo not shown) [Compound 53, N-(4-(4-amino-1-(1-(3-cyclobutyl-5-fluoro-4-oxo-3,4-dihydroquinazolin-2-yl)ethyl)-1H-pyrazolo[3,4-d]pyrimidin-3-yl)phenyl)acetamide] |
| 0.039 | COc1ccc(-c2nn(C(C)c3nc4cccc(F)c4c(=O)n3C3CCC3)c3ncnc(N)c23)cn1 (stereo not shown) [Compound 54, 2-(1-(4-amino-3-(6-methoxypyridin-3-yl)-1H-pyrazolo [3,4-d]pyrimidin-1-yl)ethyl)-3-cyclobutyl-5-fluoroquinazolin-4(3H)-one] |
| 0.0567 | CCC(c1nc2cc(F)c(F)cc2c(=O)n1C1CC1)n1nc(-c2ccc(OC)c(F)c2)c2c(N)ncnc21 (stereo not shown) [Compound 56, 2-(1-(4-amino-3-(3-fluoro-4-methoxyphenyl)-1H-pyrazolo [3,4-d]pyrimidin-1-yl)propyl)-3-cyclopropyl-6,7-difluoroquinazolin-4(3H)-one] |
| 0.0367 | CC[C@H](c1nc2cccc(F)c2c(=O)n1C1CC1)n1nc(-c2ccc(OC)c(F)c2)c2c(N)ncnc21 [Compound 82, 2-((R)-1-(4-amino-3-(3-fluoro-4-methoxyphenyl)-1H-pyrazolo [3,4-d]pyrimidin-1-yl)propyl)-3-cyclopropyl-5-fluoroquinazolin-4(3H)-one] |

— patent publication US12221448B2, “Selective PI3Kδ inhibitor and use thereof” (TARAPEUTICS SCIENCE INC., priority 2018, dated 2025)
